Molecules are shown by their SMILES.

The test system of one assay is 22RV1 cells. Description: Cell proliferation inhibition assay in 22RV1 cells (CellTiter-Glo, 7 days). Conditions: Homo sapiens, 22Rv1, 168 h. In kind it is cell-based, human. The method, then:
• 1. The human prostate cancer cell lines 22RV1 and LNCaP were purchased from ATCC. […] The cell concentration was adjusted to an appropriate concentration (determined based on the results of cell density optimization experiments), and the cells were seeded into a 96-well plate. A 100 µL cell suspension was added, resulting in 3000 cells per well. […] On the second day, for 22Rv1 cells, test compounds at different concentrations were added, and the cells were incubated at 37°C in a 5% CO2 incubator for 7 days; for LNCaP cells, test compounds at different concentrations were added first, and after 1 hour of treatment, 0.2 nM DHT was added. The cells were then incubated at 37°C in a 5% CO2 incubator for 7 days. • 4. After the incubation period, a volume of CellTiter-Glo detection reagent equal to the volume of the culture medium was added to each well. The plate was shaken and mixed thoroughly for 5 minutes, then incubated at room temperature for 10 minutes. Readings were taken using a PerkinElmer EnVision microplate reader. • 5.
The IC50 curve was fitted and the IC50 value was calculated using the software GraphPad Prism 8 with the calculation formula XY-analysis/Nonlinear regression (curve fit)/Dose response-Inhibition/log (inhibitor) vs. response-Variable slope (four parameters).
Background: In ATP-based viability assays light output follows the ATP content of the culture.
`CC(C)(c1ccc(-c2ccc(OCc3ccnc(N4CC(OCCS(C)(=O)=O)C4)n3)cc2)cc1)c1cc(Cl)c(OCCCl)c(C#N)c1` [Compound 160] came in with an IC50 of 230 nM.

The same assay, now with this note: Homo sapiens, 168 h.
The compound `CC(C)(c1ccc(-c2ccc(OCc3ccnc(P(C)(C)=O)n3)cc2)cc1)c1cc(Cl)c(OCC2CCC2)c(C#N)c1` [Compound 152] registered an IC50 of 330 nM.
`CC(C)(c1ccc(-c2cc(F)c(OCc3ccnc(N=S4(=O)CCOCC4)n3)cn2)cc1)c1cc(Cl)c(OCCCl)c(C#N)c1` [Compound 153] showed an IC50 of 780 nM.
Still for that read-out and setting: the same measure for `CC(C)(c1ccc(-c2ccc(OCc3ccnc(N=S4(=O)CCOCC4)n3)c(F)n2)cc1)c1cc(Cl)c(OCCCl)c(C#N)c1` [Compound 154]: 260 nM.
As to `CC(C)(c1ccc(-c2ccc(OCc3scnc3P(C)(C)=O)cc2)cc1)c1cc(Cl)c(OCCCl)c(C#N)c1` [Compound 157], the IC50 was determined as 480 nM.
On the same count and under the same terms, then `CC(C)(c1ccc(-c2ccc(OCc3ccnc(N4CC5(CC(O)C5)C4)n3)cc2)cc1)c1cc(Cl)c(OCCCl)c(C#N)c1` [Compound 165], with 390 nM; and `COC1CC2(C1)CN(c1nccc(COc3ccc(-c4ccc(C(C)(C)c5cc(Cl)c(OCCCl)c(C#N)c5)cc4)cc3)n1)C2` [Compound 166], with 1210 nM.
Compound `CC(C)(c1ccc(-c2ccc(OCC3CCOCC3)cn2)cc1)c1cc(Cl)c(OCCCl)c(C#N)c1` [Compound 169] yielded an IC50 of 360 nM.
Still for that read-out and setting: the same measure for `CC(C)(c1ccc(-c2ccc(OC[C@@H]3CCOC3)cc2)cc1)c1cc(Cl)c(OCCCl)c(C#N)c1` [Compound 171]: 1240 nM.
In turn, `CC(C)(c1ccc(-c2ccc(OCC3CN(C4CC4)C3)cc2)cc1)c1cc(Cl)c(OCCCl)c(C#N)c1` [Compound 172] showed an IC50 of 1230 nM.
`CC(C)(c1ccc(-c2ccc(OCc3ccnc(P(C)(C)=O)n3)c(C#N)c2)cc1)c1cc(Cl)c(OCCCl)c(C#N)c1` [Compound 173] displayed an IC50 of 400 nM.
The same measure, in the same setting: the same measure for `CC(C)(c1ccc(-c2ccc(OCC3CCOCC3)nc2)cc1)c1cc(Cl)c(OCCCl)c(C#N)c1` [Compound 184]: 920 nM; for `CC(c1ccccc1)(c1ccc(-c2ccc(OCc3ccnc(P(C)(C)=O)n3)cc2)cc1)c1cc(Cl)c(OCCCl)c(C#N)c1` (stereo not drawn) [Compound 190]: 630 nM; for `CC(C)(c1ccc(-c2ccc(OCC3CC(CN4CC5(COC5)C4)C3)cc2)cc1)c1cc(Cl)c(OCCCl)c(C#N)c1` (stereo not drawn) [Compound 196]: 860 nM.
For the compound `CC(C)(c1ccc(-c2ccc(OCc3ccnc(N4CC5(C4)CC(F)(F)C5)n3)cc2)cc1)c1cc(Cl)c(OCCCl)c(C#N)c1` [Compound 198], inhibition was half-maximal at 530 nM (IC50).
The same measure, in the same setting: the same measure for `CC(C)(c1ccc(-c2ccc(OCc3ccnc(N4CC5COCC5C4)n3)cc2)cc1)c1cc(Cl)c(OCCCl)c(C#N)c1` (stereo not drawn) [Compound 199]: 1010 nM; for `CC(C)(c1ccc(-c2ccc(OCc3ccnc(N4CCN(S(C)(=O)=O)CC4)n3)cc2)cc1)c1cc(Cl)c(OCCCl)c(C#N)c1` [Compound 200]: 580 nM; for `CC(C)(c1ccc(-c2ccc(OCc3ccnc(OC4CC5(COC5)C4)n3)cc2)cc1)c1cc(Cl)c(OCCCl)c(C#N)c1` [Compound 201]: 190 nM.
`CC(C)(c1ccc(-c2ccc(OCCOc3nccc(N=S4(=O)CCOCC4)n3)cc2)cc1)c1cc(Cl)c(OCCCl)c(C#N)c1` [Compound 205] came in with an IC50 of 430 nM.
`CC(C)(c1ccc(-c2ccc(OCc3ccnc(N4CC5(C4)CS(=O)(=O)C5)n3)nc2)cc1)c1cc(Cl)c(OCCCl)c(C#N)c1` [Compound 208]: the IC50 was found to be 990 nM.
On the same count and under the same terms, then `CC(C)(c1ccc(-c2ccc(OCc3ccnc(N4CCC(S(C)(=O)=O)CC4)n3)nc2)cc1)c1cc(Cl)c(OCCCl)c(C#N)c1` [Compound 210], with 230 nM.
Same read-out and setting: then `CC(C)(c1ccc(-c2ccc(OCc3ccnc(N=S4(=O)CCNCC4)n3)nc2)cc1)c1cc(Cl)c(OCCCl)c(C#N)c1` [Compound 211], with 390 nM.
Same read-out and setting: the same measure for `CC(C)(c1ccc(-c2ccc(OCC3CN(C4CCOCC4)C3)cc2)cc1)c1cc(Cl)c(OCCCl)c(C#N)c1` [Compound 212]: 440 nM; for `CC(C)(c1ccc(-c2ccc(OCc3ccnc(N=S4(=O)CCN(CC(F)(F)F)CC4)n3)cc2)cc1)c1cc(Cl)c(OCCCl)c(C#N)c1` [Compound 217]: 430 nM.
As for `CC(=O)N1CCS(=O)(=Nc2nccc(COc3ccc(-c4ccc(C(C)(C)c5cc(Cl)c(OCCCl)c(C#N)c5)cc4)cc3)n2)CC1` [Compound 218], half-maximal inhibition (IC50) required 370 nM.
On to `CC(C)(c1ccc(-c2ccc(OCc3ccnc(N=S4(=O)CCN(C(=O)C5CC5)CC4)n3)cc2)cc1)c1cc(Cl)c(OCCCl)c(C#N)c1` [Compound 219], for which inhibition was half-maximal at 210 nM (IC50).
In turn, `CC(C)(c1ccc(-c2ccc(OCc3ccnc(N=S4(=O)CCN(S(C)(=O)=O)CC4)n3)cc2)cc1)c1cc(Cl)c(OCCCl)c(C#N)c1` [Compound 220] showed an IC50 of 170 nM.
Compound `CC(C)(c1ccc(-c2ccc(OCc3ccnc(N=S4(=O)CCN(C5COC5)CC4)n3)cc2)cc1)c1cc(Cl)c(OCCCl)c(C#N)c1` [Compound 223] registered an IC50 of 510 nM.
`CC(C)(c1ccc(-c2ccc(OCc3cc(P(C)(C)=O)ccn3)cc2)cc1)c1cc(Cl)c(OCCCl)c(C#N)c1` [Compound 224] had an IC50 of 1330 nM.
The same measure, in the same setting: then `CC(C)(c1ccc(-c2ccc(OCC3CC(N4CC5(C4)CS(=O)(=O)C5)C3)cc2)cc1)c1cc(Cl)c(OCCCl)c(C#N)c1` (stereo not drawn) [Compound 230], with 520 nM; and `CC(C)(c1ccc(-c2ccc(/C=C/c3cnc(N4CC5(C4)CS(=O)(=O)C5)nc3)cc2)cc1)c1cc(Cl)c(OCCCl)c(C#N)c1` [Compound 235], with 610 nM; and `CC(C)(c1ccc(-c2ccc(OCc3ccnc(N=S4(=O)CCN(CC(F)F)CC4)n3)cc2)cc1)c1cc(Cl)c(OCCCl)c(C#N)c1` [Compound 239], with 1010 nM.
On the same count and under the same terms, then `CC(C)(c1ccc(-c2ccc(C#Cc3ccnc(N=S4(=O)CCCC4)n3)cc2)cc1)c1cnc2c(cnn2CCCl)c1` [Compound 240], with 650 nM; and `CC(C)(c1ccc(-c2ccc(OCc3ccnc(N=S4(=O)CCN(CCC(F)(F)F)CC4)n3)cc2)cc1)c1cc(Cl)c(OCCCl)c(C#N)c1` [Compound 241], with 790 nM.
Still for that read-out and setting: the same measure for `CC(C)(c1ccc(-c2ccc(OCc3ccnc(N=S4(=O)CCN(C5CC5)CC4)n3)cn2)cc1)c1cc(Cl)c(OCCCl)c(C#N)c1` [Compound 250]: 860 nM; for `CC(C)(c1ccc(-c2ccc(OCc3ccnc(N=S4(=O)CCN(CC(O)C(F)(F)F)CC4)n3)cc2)cc1)c1cc(Cl)c(OCCCl)c(C#N)c1` (stereo not drawn) [Compound 252]: 720 nM; for `CNC(=O)CN1CCS(=O)(=Nc2nccc(COc3ccc(-c4ccc(C(C)(C)c5cc(Cl)c(OCCCl)c(C#N)c5)cc4)cc3)n2)CC1` [Compound 255]: 560 nM.
Turning to `CC(C)(c1ccc(-c2ccc(OCc3ccnc(N=S4(=O)CCN(CC(F)(F)F)CC4)n3)nc2)cc1)c1cc(Cl)c(OCCCl)c(C#N)c1` [Compound 261], the IC50 was 830 nM.
Still for that read-out and setting: the same measure for `CC(C)(c1ccc(-c2ccc(OCc3ccnc(N4CCCS4(=O)=O)n3)cc2)cc1)c1cc(Cl)c(OCCCl)c(C#N)c1` [Compound 265]: 540 nM; for `CC(C)(c1ccc(-c2ccc(OCc3ccnc(N4CCC(S(C)(=O)=O)C4)n3)cc2)cc1)c1cc(Cl)c(OCCCl)c(C#N)c1` (stereo not drawn) [Compound 266]: 770 nM.
The same measure, in the same setting: then `CC(C)(c1ccc(-c2ccc(Oc3ccc(-c4ccnc(P(C)(C)=O)n4)cc3)cc2)cc1)c1cc(Cl)c(OCCCl)c(C#N)c1` [Compound 267], with 170 nM.
As to `CC(C)(c1ccc(-c2ccc(/C=C\c3cnc(P(C)(C)=O)nc3)c(C#N)c2)cc1)c1cc(Cl)c(OCCCl)c(C#N)c1` [Compound 269], the IC50 was found to be 390 nM.
For `CC(C)(c1ccc(-c2ccc(Oc3ccc(-c4cnc(P(C)(C)=O)nc4)cc3)cc2)cc1)c1cc(Cl)c(OCCCl)c(C#N)c1` [Compound 270], the midpoint of inhibition, the IC50, lay at 890 nM.
Same read-out and setting: then `CC(C)(c1ccc(-c2cnc(OCc3ccc(-c4cnc(P(C)(C)=O)nc4)cc3)nc2)cc1)c1cc(Cl)c(OCCCl)c(C#N)c1` [Compound 274], with 130 nM.
Still for that read-out and setting: then `CC(C)(c1ccc(-c2ccc(OCc3ccc(-c4cnc(P(C)(C)=O)nc4)cc3)cn2)cc1)c1cc(Cl)c(OCCCl)c(C#N)c1` [Compound 275], with 460 nM.
Still for that read-out and setting: then `CC(C)(c1ccc(-c2ccc(OCc3ccc(-c4cnc(P(C)(C)=O)nc4)cc3)nc2)cc1)c1cc(Cl)c(OCCCl)c(C#N)c1` [Compound 277], with 1310 nM.
Consider `CC(C)(c1ccc(-c2ccc(OCc3ccnc(P(C)(C)=O)n3)cc2)cc1)c1cc(F)c2c(cnn2CCCl)c1` [Compound 280], for which inhibition was half-maximal at 1270 nM (IC50).
On the same count and under the same terms, then `Cn1ncc2c1CCS(=O)(=Nc1nccc(COc3ccc(-c4ccc(C(C)(C)c5cc(Cl)c(OCCCl)c(C#N)c5)cc4)cc3)n1)C2` (stereo not drawn) [Compound 281], with 500 nM; and `CC(C)(c1ccc(-c2ccc(C#Cc3ncc(P(C)(C)=O)cn3)cc2)cc1)c1cc(Cl)c(OCCCl)c(C#N)c1` [Compound 282], with 820 nM.
Regarding `CC(C)(c1ccc(-c2ccc(OCc3ccnc(N=S4(=O)CCN(CC(O)CC(F)(F)F)CC4)n3)cc2)cc1)c1cc(Cl)c(OCCCl)c(C#N)c1` (stereo not drawn) [Compound 285], the IC50 was 210 nM.
Same read-out and setting: the same measure for `CC(C)(c1ccc(-c2ccc(OCc3ccnc(N=S4(=O)CCN(C[C@@H](O)C(F)(F)F)CC4)n3)cc2)cc1)c1cc(Cl)c(OCCCl)c(C#N)c1` [Compound 286]: 700 nM.

By IC50 is commonly meant the concentration that gives 50% inhibition. High values mean weaker potency, low ones greater potency.

For the origin of these results see EP4778922A1, “BICYCLIC COMPOUND, AND PREPARATION METHOD THEREFOR AND PHARMACEUTICAL USE THEREOF” (Shanghai Jeyou Pharmaceutical Co., Ltd., priority 2023, dated 2025).
